From article PMC12337661, “PIEZO1 mechanical insensitivity in generalized lymphatic dysplasia with the potential for pharmacological rescue” (iScience, 2025)
Values joined by “and” are separate entries in the source; they are usually repeats but may differ in a detail not shown here. Identical values can stand only once.

Tests used:
R2351Q mPIEZO1 [1] = target: T1, R2351Q mPIEZO1 (Mus musculus, UniProt E2JF22, R2351Q); assay: Intracellular Ca2+ measurement (fura-2), T-REx-293 cells stably transfected; format: cell-based
T1 construct: expressed in transfected cells
T1 sequence (E2JF22 whole entry R2351Q): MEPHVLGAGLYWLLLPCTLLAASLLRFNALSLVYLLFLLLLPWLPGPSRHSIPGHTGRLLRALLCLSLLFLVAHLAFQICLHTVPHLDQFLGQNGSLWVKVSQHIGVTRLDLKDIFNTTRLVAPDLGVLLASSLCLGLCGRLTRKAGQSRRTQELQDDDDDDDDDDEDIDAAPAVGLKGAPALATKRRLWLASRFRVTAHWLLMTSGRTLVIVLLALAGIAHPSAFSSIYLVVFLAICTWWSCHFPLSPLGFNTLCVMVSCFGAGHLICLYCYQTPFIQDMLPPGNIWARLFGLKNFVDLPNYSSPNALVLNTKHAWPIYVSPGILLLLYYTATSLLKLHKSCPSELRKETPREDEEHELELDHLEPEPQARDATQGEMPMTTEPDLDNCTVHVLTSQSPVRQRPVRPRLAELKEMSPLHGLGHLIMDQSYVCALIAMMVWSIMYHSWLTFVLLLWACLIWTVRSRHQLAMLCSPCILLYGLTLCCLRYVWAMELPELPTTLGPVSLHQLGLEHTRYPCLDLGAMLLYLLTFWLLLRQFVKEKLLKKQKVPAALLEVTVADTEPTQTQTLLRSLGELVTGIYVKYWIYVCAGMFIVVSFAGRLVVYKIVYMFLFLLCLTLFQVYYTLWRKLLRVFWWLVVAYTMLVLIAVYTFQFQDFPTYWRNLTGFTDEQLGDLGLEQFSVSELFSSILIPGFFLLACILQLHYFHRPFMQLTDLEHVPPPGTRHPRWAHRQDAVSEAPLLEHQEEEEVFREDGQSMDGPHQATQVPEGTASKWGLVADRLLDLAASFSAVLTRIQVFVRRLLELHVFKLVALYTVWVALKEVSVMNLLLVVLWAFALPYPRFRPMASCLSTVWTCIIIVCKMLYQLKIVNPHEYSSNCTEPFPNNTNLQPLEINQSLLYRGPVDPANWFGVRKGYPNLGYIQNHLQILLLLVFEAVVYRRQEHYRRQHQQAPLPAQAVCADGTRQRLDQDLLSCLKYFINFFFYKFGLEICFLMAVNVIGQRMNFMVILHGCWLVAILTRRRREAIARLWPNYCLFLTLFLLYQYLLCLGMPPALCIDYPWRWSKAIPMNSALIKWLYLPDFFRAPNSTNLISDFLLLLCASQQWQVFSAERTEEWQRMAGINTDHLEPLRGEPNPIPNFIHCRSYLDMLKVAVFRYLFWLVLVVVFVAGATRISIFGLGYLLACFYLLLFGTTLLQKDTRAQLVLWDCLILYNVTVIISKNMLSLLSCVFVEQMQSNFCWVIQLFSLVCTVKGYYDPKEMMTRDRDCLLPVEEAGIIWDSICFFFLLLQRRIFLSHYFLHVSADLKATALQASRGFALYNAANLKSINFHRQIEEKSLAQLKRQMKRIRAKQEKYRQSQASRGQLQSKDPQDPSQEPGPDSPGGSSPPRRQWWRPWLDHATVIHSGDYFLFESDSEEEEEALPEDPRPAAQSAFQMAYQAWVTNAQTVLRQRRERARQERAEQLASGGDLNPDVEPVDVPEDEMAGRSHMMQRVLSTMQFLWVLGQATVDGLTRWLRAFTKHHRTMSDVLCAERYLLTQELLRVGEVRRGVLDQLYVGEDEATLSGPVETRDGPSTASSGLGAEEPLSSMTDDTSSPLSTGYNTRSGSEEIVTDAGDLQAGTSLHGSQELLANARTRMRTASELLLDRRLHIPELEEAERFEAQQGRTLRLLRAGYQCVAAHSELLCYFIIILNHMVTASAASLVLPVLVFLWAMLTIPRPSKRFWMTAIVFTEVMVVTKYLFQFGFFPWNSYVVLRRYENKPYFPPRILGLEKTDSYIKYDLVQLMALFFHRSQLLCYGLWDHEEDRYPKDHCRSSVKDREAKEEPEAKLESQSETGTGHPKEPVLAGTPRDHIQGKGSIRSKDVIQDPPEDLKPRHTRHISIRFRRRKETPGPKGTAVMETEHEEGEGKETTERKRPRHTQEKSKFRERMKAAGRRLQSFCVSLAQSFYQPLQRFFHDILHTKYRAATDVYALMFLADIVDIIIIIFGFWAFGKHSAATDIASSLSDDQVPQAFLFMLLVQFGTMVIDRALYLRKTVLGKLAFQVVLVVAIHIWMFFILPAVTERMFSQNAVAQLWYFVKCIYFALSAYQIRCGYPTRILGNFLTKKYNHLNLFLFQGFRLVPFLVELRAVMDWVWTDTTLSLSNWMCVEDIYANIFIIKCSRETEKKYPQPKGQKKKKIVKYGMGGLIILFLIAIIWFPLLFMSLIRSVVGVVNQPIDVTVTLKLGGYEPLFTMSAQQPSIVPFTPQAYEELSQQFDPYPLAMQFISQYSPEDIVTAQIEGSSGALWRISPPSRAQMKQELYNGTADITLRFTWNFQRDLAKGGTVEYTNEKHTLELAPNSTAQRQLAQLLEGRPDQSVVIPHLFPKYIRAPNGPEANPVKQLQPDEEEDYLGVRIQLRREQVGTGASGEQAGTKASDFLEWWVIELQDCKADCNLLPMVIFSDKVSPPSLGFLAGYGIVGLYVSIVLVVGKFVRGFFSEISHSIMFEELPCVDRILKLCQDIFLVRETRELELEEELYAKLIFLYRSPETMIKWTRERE
Description: T-REx-293 cell line was transfected with pcDNA4/TO-mPIEZO1 constructs using Lipofectamine 2000 (Invitrogen) as above and treated with 200 μg.mL^−1 zeocin (InvivoGen) to select for stably transfected cells. At least two strongly expressing clonal cell lines were established and tested for each variant. All cell lines were maintained in Dulbecco’s Modified Eagle’s medium (Invitrogen) supplemented with 10% heat-inactivated fetal calf serum (Sigma-Aldrich), penicillin (50 units.mL^−1) and streptomycin (0.5 mg.mL^−1) (Sigma-Aldrich) and grown at 37°C in a humidified 5% CO2 incubator.
For intracellular Ca^2+ assays, cells were plated at 80–90% confluence in 96-well plates 24 h prior to recordings (6–8 × 10^4 cells per well). […] Cells were washed with SBS and incubated at room temperature for 20 min prior to recordings. Equal volumes of 2x concentrated compounds were injected to test for acute channel activation. Pre-incubation with compounds occurred during the 20 min prior to recordings. To expose cell membranes to hypo-osmolality, an equal volume of hypotonic SBS (containing only 35 mM NaCl) was injected onto the cells. Measurements were made on a fluorescence plate reader (Flexstation III, Molecular Devices) at room temperature (21 ± 2°C). Fura-2 was excited at 340 nm and 380 nm and emitted light collected at 510 nm, with measurements shown as the change in fluorescence (F) ratio (ΔF340/380).
KC41 (Dooku1) was prepared as described.[28] All purchased chemicals and solvents were used without further purification unless otherwise stated. All compounds were at least 95% pure by 1H NMR. 1H Nuclear Magnetic Resonance spectra were recorded at 500 MHz using a Bruker DRX 500 instrument or at 400 MHz using a Bruker DPX 400. 1H spectra are referenced based on the residual proton in the solvent (e.g., the CHCl3, 0.01% in 99.99% CDCl3). Coupling constants (J) are reported to the nearest 0.1 Hz. 13C NMR spectra were recorded at 125 MHz on 500 MHz spectrometers or at 100 MHz on 400 MHz spectrometers. LC-MS was performed on a Bruker Daltronics running a gradient of increasing acetonitrile (5–95%) in H2O both containing 0.1% formic acid at 1 mL.min^−1, on a short path C18 reverse phase column, detecting compounds with both a diode array detector and a Bruker mass spectrum analyser. HRMS was performed on a Bruker Daltonics micrOTOF using positive electrospray ionisation (ES+). Automated column chromatograph was carried out using a Biotage Isolera Four, using either Sfär Silica D or KP-Silica cartridges. HPLC was performed on an Agilent 1290 Infinity Series equipped with a UV detector and Hyperprep C18 reverse phase column. Key to NMR abbreviations: s (singlet), br s (broad singlet) d (doublet), dd (doublet of doublets), ddd (doublet of doublets of doublets), t (triplet), dt (doublet of triples), q (quartet), m (multiplet), ap. t (apparent triplet). For experiments, Yoda1 and its analogues were prepared as 10 mM stock solutions in 100% dimethyl sulfoxide (DMSO) before serial dilution in DMSO and final dilution in aqueous solution. Cells were exposed to 0.1% DMSO for all concentrations of the compounds from 0 to 10 μM.

R2351Q mPIEZO1 [2] = target: T1, R2351Q mPIEZO1; assay: Outside-out patch recording with pressure pulses; format: cell-based
Description: Ionic currents were recorded through outside-out patches from cells using standard patch-clamp techniques in voltage-clamp mode. Patch pipettes were fire-polished and had resistance of 4–7 MΩ when filled with pipette solution. Ionic solution of composition (mM) NaCl 140, HEPES 10 and EGTA 5 (titrated to pH 7.4 using NaOH) was used in both the pipette and bath. Recordings were at a constant holding potential of −80 mV. 200-ms pressure steps were applied to the patch pipette with an interval of 12 s using High Speed Pressure Clamp HSPC-1 System (ALA Scientific Instruments, USA). All recordings were made with an Axopatch-200B amplifier (Axon Instruments, Inc., USA) equipped with Digidata 1550B and pClamp (v10.6) software (Molecular Devices, USA) at room temperature (21 ± 2°C). Currents were filtered at 2–5 kHz and digitally sampled at 5–20 kHz.

Mean (Ca2+ signal time course, Figure 4f) (R2351Q mPIEZO1 [1]; R2351Q, 0.3 µM, time 0 s): -0.00579
Mean (Ca2+ signal time course, Figure 4f) (R2351Q mPIEZO1 [1]; R2351Q, 0.3 µM, time 5 s): 0.00313
Mean (Ca2+ signal time course, Figure 4f) (R2351Q mPIEZO1 [1]; R2351Q, 0.3 µM, time 10 s): -0.01466
Mean (Ca2+ signal time course, Figure 4f) (R2351Q mPIEZO1 [1]; R2351Q, 0.3 µM, time 15 s): 0.00749
Mean (Ca2+ signal time course, Figure 4f) (R2351Q mPIEZO1 [1]; R2351Q, 0.3 µM, time 20 s): 0.00732
Mean (Ca2+ signal time course, Figure 4f) (R2351Q mPIEZO1 [1]; R2351Q, 0.3 µM, time 25 s): 0.00251
Mean (Ca2+ signal time course, Figure 4f) (R2351Q mPIEZO1 [1]; R2351Q, 0.3 µM, time 30 s): -0.3502
Mean (Ca2+ signal time course, Figure 4f) (R2351Q mPIEZO1 [1]; R2351Q, 0.3 µM, time 35 s): 0.104
Mean (Ca2+ signal time course, Figure 4f) (R2351Q mPIEZO1 [1]; R2351Q, 0.3 µM, time 40 s): 0.09692
Mean (Ca2+ signal time course, Figure 4f) (R2351Q mPIEZO1 [1]; R2351Q, 0.3 µM, time 45 s): 0.1007
Mean (Ca2+ signal time course, Figure 4f) (R2351Q mPIEZO1 [1]; R2351Q, 0.3 µM, time 50 s): 0.1032
Mean (Ca2+ signal time course, Figure 4f) (R2351Q mPIEZO1 [1]; R2351Q, 0.3 µM, time 55 s): 0.1237
Mean (Ca2+ signal time course, Figure 4f) (R2351Q mPIEZO1 [1]; R2351Q, 0.3 µM, time 60 s): 0.09438
Mean (Ca2+ signal time course, Figure 4f) (R2351Q mPIEZO1 [1]; R2351Q, 0.3 µM, time 65 s): 0.1134
Mean (Ca2+ signal time course, Figure 4f) (R2351Q mPIEZO1 [1]; R2351Q, 0.3 µM, time 70 s): 0.1058
Mean (Ca2+ signal time course, Figure 4f) (R2351Q mPIEZO1 [1]; R2351Q, 0.3 µM, time 75 s): 0.1024
Mean (Ca2+ signal time course, Figure 4f) (R2351Q mPIEZO1 [1]; R2351Q, 0.3 µM, time 80 s): 0.1081
Mean (Ca2+ signal time course, Figure 4f) (R2351Q mPIEZO1 [1]; R2351Q, 0.3 µM, time 85 s): 0.0998
Mean (Ca2+ signal time course, Figure 4f) (R2351Q mPIEZO1 [1]; R2351Q, 0.3 µM, time 90 s): 0.09979
Mean (Ca2+ signal time course, Figure 4f) (R2351Q mPIEZO1 [1]; R2351Q, 0.3 µM, time 95 s): 0.1117
Mean (Ca2+ signal time course, Figure 4f) (R2351Q mPIEZO1 [1]; R2351Q, 0.3 µM, time 100 s): 0.1219
Mean (Ca2+ signal time course, Figure 4f) (R2351Q mPIEZO1 [1]; R2351Q, 0.3 µM, time 105 s): 0.1074
Mean (Ca2+ signal time course, Figure 4f) (R2351Q mPIEZO1 [1]; R2351Q, 0.3 µM, time 110 s): 0.1111
Mean (Ca2+ signal time course, Figure 4f) (R2351Q mPIEZO1 [1]; R2351Q, 0.3 µM, time 115 s): 0.1145
Mean (Ca2+ signal time course, Figure 4f) (R2351Q mPIEZO1 [1]; R2351Q, 0.3 µM, time 120 s): 0.1043
Mean (Ca2+ signal time course, Figure 4f) (R2351Q mPIEZO1 [1]; R2351Q, 0.3 µM, time 125 s): 0.1036
Mean (Ca2+ signal time course, Figure 4f) (R2351Q mPIEZO1 [1]; R2351Q, 0.3 µM, time 130 s): 0.08711
Mean (Ca2+ signal time course, Figure 4f) (R2351Q mPIEZO1 [1]; R2351Q, 3 µM, time 0 s): -0.0026
Mean (Ca2+ signal time course, Figure 4f) (R2351Q mPIEZO1 [1]; R2351Q, 3 µM, time 5 s): -0.00676
Mean (Ca2+ signal time course, Figure 4f) (R2351Q mPIEZO1 [1]; R2351Q, 3 µM, time 10 s): -0.01186
Mean (Ca2+ signal time course, Figure 4f) (R2351Q mPIEZO1 [1]; R2351Q, 3 µM, time 15 s): -0.00542
Mean (Ca2+ signal time course, Figure 4f) (R2351Q mPIEZO1 [1]; R2351Q, 3 µM, time 20 s): 0.01045
Mean (Ca2+ signal time course, Figure 4f) (R2351Q mPIEZO1 [1]; R2351Q, 3 µM, time 25 s): 0.0162
Mean (Ca2+ signal time course, Figure 4f) (R2351Q mPIEZO1 [1]; R2351Q, 3 µM, time 30 s): -0.5301
Mean (Ca2+ signal time course, Figure 4f) (R2351Q mPIEZO1 [1]; R2351Q, 3 µM, time 35 s): -0.09017
Mean (Ca2+ signal time course, Figure 4f) (R2351Q mPIEZO1 [1]; R2351Q, 3 µM, time 40 s): 0.3419
Mean (Ca2+ signal time course, Figure 4f) (R2351Q mPIEZO1 [1]; R2351Q, 3 µM, time 45 s): 0.4568
Mean (Ca2+ signal time course, Figure 4f) (R2351Q mPIEZO1 [1]; R2351Q, 3 µM, time 50 s): 0.5783
Mean (Ca2+ signal time course, Figure 4f) (R2351Q mPIEZO1 [1]; R2351Q, 3 µM, time 55 s): 0.623
Mean (Ca2+ signal time course, Figure 4f) (R2351Q mPIEZO1 [1]; R2351Q, 3 µM, time 60 s): 0.705
Mean (Ca2+ signal time course, Figure 4f) (R2351Q mPIEZO1 [1]; R2351Q, 3 µM, time 65 s): 0.7592
Mean (Ca2+ signal time course, Figure 4f) (R2351Q mPIEZO1 [1]; R2351Q, 3 µM, time 70 s): 0.7946
Mean (Ca2+ signal time course, Figure 4f) (R2351Q mPIEZO1 [1]; R2351Q, 3 µM, time 75 s): 0.8127
Mean (Ca2+ signal time course, Figure 4f) (R2351Q mPIEZO1 [1]; R2351Q, 3 µM, time 80 s): 0.8608
Mean (Ca2+ signal time course, Figure 4f) (R2351Q mPIEZO1 [1]; R2351Q, 3 µM, time 85 s): 0.9118
Mean (Ca2+ signal time course, Figure 4f) (R2351Q mPIEZO1 [1]; R2351Q, 3 µM, time 90 s): 0.9125
Mean (Ca2+ signal time course, Figure 4f) (R2351Q mPIEZO1 [1]; R2351Q, 3 µM, time 95 s): 0.9634
Mean (Ca2+ signal time course, Figure 4f) (R2351Q mPIEZO1 [1]; R2351Q, 3 µM, time 100 s): 1.007
Mean (Ca2+ signal time course, Figure 4f) (R2351Q mPIEZO1 [1]; R2351Q, 3 µM, time 105 s): 0.9869
Mean (Ca2+ signal time course, Figure 4f) (R2351Q mPIEZO1 [1]; R2351Q, 3 µM, time 110 s): 1.018
Mean (Ca2+ signal time course, Figure 4f) (R2351Q mPIEZO1 [1]; R2351Q, 3 µM, time 115 s): 0.9551
Mean (Ca2+ signal time course, Figure 4f) (R2351Q mPIEZO1 [1]; R2351Q, 3 µM, time 120 s): 0.9921
Mean (Ca2+ signal time course, Figure 4f) (R2351Q mPIEZO1 [1]; R2351Q, 3 µM, time 125 s): 1.006
Mean (Ca2+ signal time course, Figure 4f) (R2351Q mPIEZO1 [1]; R2351Q, 3 µM, time 130 s): 0.9688
Mean normalise fluorescence (R2351Q mPIEZO1 [1]; R2351Q, 20 min exposure, Yoda1 0.03 µM, Figure 4d): 0.08092
Mean normalise fluorescence (R2351Q mPIEZO1 [1]; R2351Q, 20 min exposure, Yoda1 0.1 µM, Figure 4d): -0.0159
Mean normalise fluorescence (R2351Q mPIEZO1 [1]; R2351Q, 20 min exposure, Yoda1 0.3 µM, Figure 4d): 0.3248
Mean normalise fluorescence (R2351Q mPIEZO1 [1]; R2351Q, 20 min exposure, Yoda1 1 µM, Figure 4d): 0.9747
Mean normalise fluorescence (R2351Q mPIEZO1 [1]; R2351Q, 20 min exposure, Yoda1 3 µM, Figure 4d): 1
Mean normalise fluorescence (R2351Q mPIEZO1 [1]; R2351Q, 20 min exposure, Yoda1 10 µM, Figure 4d): 0.9987
EC50 (R2351Q mPIEZO1 [1]; long (20 min) exposure, normalized to 3 μM Yoda1): 420 nM
Mean normalise fluorescence (R2351Q mPIEZO1 [1]; short 1.5-min exposure, 0.03 µM): 0.00392
Mean normalise fluorescence (R2351Q mPIEZO1 [1]; short 1.5-min exposure, 0.1 µM): 5.49E-04
Mean normalise fluorescence (R2351Q mPIEZO1 [1]; short 1.5-min exposure, 0.3 µM): 0.02154
Mean normalise fluorescence (R2351Q mPIEZO1 [1]; short 1.5-min exposure, 1 µM): 0.1259
Mean normalise fluorescence (R2351Q mPIEZO1 [1]; short 1.5-min exposure, 3 µM): 0.401
Mean normalise fluorescence (R2351Q mPIEZO1 [1]; short 1.5-min exposure, 5 µM): 0.6595
Mean normalise fluorescence (R2351Q mPIEZO1 [1]; short 1.5-min exposure, 10 µM): 1
Effect on mPIEZO1 channel function (R2351Q mPIEZO1 [1]; versus WT): loss of MA: LOF; reduced Y1 potency
currents at given condition, Mean (R2351Q mPIEZO1 [2]; R2351Q, Yoda1, mean of 7 cells, Figure 4e): -52.7493 pA
SMILES: Clc1cccc(Cl)c1CSc1nnc(-c2cnccn2)s1 [Yoda1]
mechanical activation in the presence of the compound (R2351Q mPIEZO1 [2]; 5 μM, 75 mmHg pressure pulses): robust mechanical activation of the variant channels
currents at given condition, individual cells (cell1-cell7) (R2351Q mPIEZO1 [2]; R2351Q, Yoda1, Figure 4e): -87.925 pA and -24.5178 pA and -36.1129 pA and -20.7822 pA and -20.109 pA and -65.4339 pA and -114.364 pA
